The source of these data is PMC2903749 (ACS medicinal chemistry letters, 2010).

In one assay the target is proline racemase. Particulars: cited from earlier work.
In another assay the target is Glutamate racemase (GR) (Bacillus subtilis, UniProt P94556). Kind of assay: biochemical.

SMILES strings stand for the structures. pKi: −log10 of the molar value. Like-named read-outs stand apart in the source and are kept apart here.

Glutamate racemase (GR), sequence (P94556 whole entry): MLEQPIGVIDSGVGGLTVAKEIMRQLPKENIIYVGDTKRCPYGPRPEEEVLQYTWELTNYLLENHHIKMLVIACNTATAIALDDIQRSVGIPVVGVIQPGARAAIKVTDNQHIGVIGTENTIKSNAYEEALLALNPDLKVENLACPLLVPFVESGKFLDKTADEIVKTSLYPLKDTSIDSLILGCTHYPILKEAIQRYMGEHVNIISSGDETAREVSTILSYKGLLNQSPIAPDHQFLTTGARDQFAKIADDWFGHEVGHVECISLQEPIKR

Regarding `O=C(O)c1ccc[nH]1` [PYC, pyrrole-2-carboxylic acid], the pKi at proline racemase (read-out: Ki1, first of two binding states) was 5.34; at proline racemase (read-out: Ki2, second of two binding states), 4.52.

`NC(=O)CC[C@H](N)C(=O)O` [glutamine] gave a pKi on Glutamate racemase (GR) of 1.30.
